In ChEMBL document CHEMBL4651402, “Screening of ~5500 FDA-approved drugs and clinical candidates for anti-SARS-CoV-2 activity” (2021):
pIC50: −log10 of the molar value.

Test system: SARS-CoV-2
Assay: microbe, parasite or virus in culture
Conditions: Severe acute respiratory syndrome coronavirus 2, Vero C1008, 48 h; for IC50: read-out: pIC50 (converted)

## CC1Cc2ccccc2N1NC(=O)c1ccc(Cl)c(S(N)(=O)=O)c1 (stereo not given) [INDAPAMIDE]
  pIC50: < 4.70
  IC50: > 20 µM

## CO/N=C(\C(=O)N[C@@H]1C(=O)N2C(C(=O)O)=C(COC(N)=O)CS[C@H]12)c1ccco1 [CEFUROXIME]
  pIC50: < 4.70
  IC50: > 20 µM

## COc1cccc2c1C(=O)c1c(O)c3c(c(O)c1C2=O)C[C@@](O)(C(C)=O)C[C@@H]3O[C@H]1C[C@H](N)[C@H](O)[C@H](C)O1 [DAUNORUBICIN]
  pIC50: < 4.70
  IC50: > 20 µM

## CC1(C(=O)O)CCC2(C)CCC3(C)C(=CC(=O)C4C5(C)CCC(O)C(C)(C)C5CCC43C)C2C1 (stereo not given)
  pIC50: < 4.70
  IC50: > 20 µM

## COc1cc2[nH]c(C)c(CCN3CCN(c4ccccc4)CC3)c2cc1OC [OXYPERTINE]
  pIC50: < 4.70
  IC50: > 20 µM

## CCC(C)n1ncn(-c2ccc(N3CCN(c4ccc(OC[C@@H]5CO[C@@](Cn6cncn6)(c6ccc(Cl)cc6Cl)O5)cc4)CC3)cc2)c1=O (stereo not given in full)
  pIC50: < 4.70
  IC50: > 20 µM

## CC(C)NC[C@H](O)COc1ccc(CC(N)=O)cc1 [ESATENOLOL]
  pIC50: < 4.70
  IC50: > 20 µM

## C[C@]12CCC(=O)C=C1CC[C@@H]1[C@@H]2[C@@H](O)C[C@@]2(C)[C@H]1CC[C@]2(O)C(=O)CO [HYDROCORTISONE]
  pIC50: < 4.70
  IC50: > 20 µM

## CCOC(=O)NNc1nncc2ccccc12 [TODRALAZINE]
  pIC50: < 4.70
  IC50: > 20 µM

## CN1CCCCC1c1ccc(-c2cccnc2)nc1 (stereo not given)
  pIC50: < 4.70
  IC50: > 20 µM

## COc1ccc(C2CNC(=O)C2)cc1OC1CCCC1 (stereo not given) [ROLIPRAM]
  pIC50: < 4.70
  IC50: > 20 µM

## C/C(=N\N=C(/S)N/N=C(\S)Nc1ccccc1Cl)c1ccccn1
  pIC50: < 4.70
  IC50: > 20 µM

## CC(C)/N=C/Nc1ccc(-c2c[nH]cn2)cc1 [MIFENTIDINE]
  pIC50: < 4.70
  IC50: > 20 µM

## C[C@@H](N)Cc1ccccc1 [LEVAMFETAMINE]
  pIC50: < 4.70
  IC50: > 20 µM

## Nc1cc(-c2ccncc2)c[nH]c1=O [INAMRINONE]
  pIC50: < 4.70
  IC50: > 20 µM

## COc1ccccc1OCC1CNC(=O)O1 (stereo not given) [MEPHENOXALONE]
  pIC50: < 4.70
  IC50: > 20 µM

## C/C=C(\C)C(=O)O[C@@H]1c2c(ccc3ccc(=O)oc23)OC(C)(C)[C@@H]1OC(C)=O [PTERYXIN]
  pIC50: < 4.70
  IC50: > 20 µM

## CC(=O)OCC(=O)[C@@]1(O)CCC2C3CCC4=CC(=O)CC[C@]4(C)C3=CC[C@@]21C (stereo not given in full)
  pIC50: < 4.70
  IC50: > 20 µM

## CC(C)(Oc1ccc(CCNC(=O)c2ccc(Cl)cc2)cc1)C(=O)O [BEZAFIBRATE]
  pIC50: < 4.70
  IC50: > 20 µM

## CCC1(CCC(C)C)C(=O)NC(=O)NC1=O [AMOBARBITAL]
  pIC50: < 4.70
  IC50: > 20 µM

## CCCCCCCCCC(=O)OC1(c2ccc(Cl)cc2)CCN(CCCC(=O)c2ccc(F)cc2)CC1 [HALOPERIDOL DECANOATE]
  pIC50: < 4.70
  IC50: > 20 µM

## CC(=O)[C@H]1CC[C@H]2[C@@H]3CC[C@H]4C[C@H](O)CC[C@]4(C)[C@H]3C(=O)C[C@]12C [ALFAXALONE]
  pIC50: < 4.70
  IC50: > 20 µM

## CC(N/C(=N\C#N)Nc1ccncc1)C(C)(C)C (stereo not given) [PINACIDIL ANHYDROUS]
  pIC50: < 4.70
  IC50: > 20 µM

## CN(C)CCO [DIMETHYLAMINOETHANOL]
  pIC50: < 4.70
  IC50: > 20 µM

## Cc1cccc(C)c1NC(=O)C1(N(C)C)CCN([C@H]2CCCC[C@@H]2O)CC1
  pIC50: < 4.70
  IC50: > 20 µM

## CN[C@@H](C)[C@H](O)c1ccc(O)cc1
  pIC50: < 4.70
  IC50: > 20 µM

## CCOc1nc2cccc(C(=O)O)c2n1Cc1ccc(-c2ccccc2-c2noc(=O)[nH]2)cc1 [AZILSARTAN]
  pIC50: < 4.70
  IC50: > 20 µM

## CCCc1c(OCCCCCOc2cc3c(cc2C(C)=O)CCC(C(=O)O)O3)ccc(C(C)=O)c1O (stereo not given) [ABLUKAST]
  pIC50: < 4.70
  IC50: > 20 µM

## CCOC(=O)C1=C(COCCN)NC(C)=C(C(=O)OC)C1c1ccccc1Cl (stereo not given) [AMLODIPINE]
  pIC50: < 4.70
  IC50: > 20 µM

## C=CC[C@]1(O)CC[C@H]2[C@@H]3CCC4=CCCC[C@@H]4[C@H]3CC[C@@]21C [ALLYLESTRENOL]
  pIC50: < 4.70
  IC50: > 20 µM

## CCOC(=O)[C@H](CCc1ccccc1)CC1(C(=O)N[C@H]2CCc3ccccc3N(CC(=O)O)C2=O)CCCC1
  pIC50: < 4.70
  IC50: > 20 µM

## O=[N+]([O-])OC1COC2C(O[N+](=O)[O-])COC12 (stereo not given)
  pIC50: < 4.70
  IC50: > 20 µM

## CCOC(=O)C(COC(=O)Cc1ccc(NC(=O)c2ccccc2-c2ccc(C(F)(F)F)cc2)c(C(=O)N(C)C)c1)(C(=O)OCC)c1ccccc1 [GRANOTAPIDE]
  pIC50: < 4.70
  IC50: > 20 µM

## CO[C@]12C[C@@H](COC(=O)c3cncc(Br)c3)CN(C)[C@@H]1Cc1cn(C)c3cccc2c13 [NICERGOLINE]
  pIC50: < 4.70
  IC50: > 20 µM

## CC1(C)CC(O)CC(C)(C)N1[O] [TEMPOL]
  pIC50: < 4.70
  IC50: > 20 µM

## COC(=O)C(N)Cc1ccc(O)c(O)c1 (stereo not given)
  pIC50: < 4.70
  IC50: > 20 µM

## CC1(O)/C=C\C=C(\CO)C2CC(C)(C)C2(O)CC1 (stereo not given)
  pIC50: < 4.70
  IC50: > 20 µM

## COc1ccc(Cc2nccc3cc(OC)c(OC)cc23)cc1OC [PAPAVERINE]
  pIC50: < 4.70
  IC50: > 20 µM

## CCn1cnc(C(=O)NC)c1C(=O)NC
  pIC50: < 4.70
  IC50: > 20 µM

## CC(C)N(C(=O)CN1C(=O)[C@@H](NC(=O)Nc2cccc(C(=O)O)c2)C(=O)N(c2ccccc2)c2ccccc21)c1ccccc1
  pIC50: < 4.70
  IC50: > 20 µM

## NCCC(O)C(=O)N[C@H]1C[C@@H](N)[C@H](O[C@H]2O[C@H](CN)[C@@H](O)[C@H](O)[C@H]2O)[C@@H](O)[C@@H]1O[C@H]1O[C@H](CO)[C@@H](O)[C@H](N)[C@H]1O (stereo not given in full)
  pIC50: < 4.70
  IC50: > 20 µM

## CONC(=O)c1ccccc1Nc1cc(Nc2cc(C)nn2C(C)C)ncc1Cl [GSK-2256098]
  pIC50: < 4.70
  IC50: > 20 µM

## CC(C)=CCC[C@]1(C)C=Cc2c(O)c3c(c(CC=C(C)C)c2O1)O[C@]12C(=C[C@@H]4C[C@H]1C(C)(C)O[C@@]2(C/C=C(/C)C(=O)O)C4=O)C3=O [GAMBOGIC ACID]
  pIC50: < 4.70
  IC50: > 20 µM

## COc1ccc(C(=O)c2c(C)n(CCN3CCOCC3)c3ccccc23)cc1 [PRAVADOLINE]
  pIC50: < 4.70
  IC50: > 20 µM

## CCc1cccc2c3c([nH]c12)C(CC)(CC(=O)O)OCC3 (stereo not given) [ETODOLAC]
  pIC50: < 4.70
  IC50: > 20 µM

## NC1=NCC(c2ccc(C(F)(F)F)cc2)O1 (stereo not given) [FLUMINOREX]
  pIC50: < 4.70
  IC50: > 20 µM

## Clc1ccc2c(c1)C(N1CCNCC1)=Nc1ccccc1O2 [AMOXAPINE]
  pIC50: < 4.70
  IC50: > 20 µM

## CC(=O)C1(O)CCC2C3CC(C)C4=CC(=O)C=CC4(C)C3(F)C(O)CC21C (stereo not given)
  pIC50: < 4.70
  IC50: > 20 µM

## CC(C)OC(=O)[C@H](C)N[P@](=S)(OC[C@H]1O[C@@H](n2ccc(=O)[nH]c2=O)[C@](C)(O)[C@@H]1O)Oc1ccccc1
  pIC50: < 4.70
  IC50: > 20 µM

## C[C@H](CCC(=O)O)[C@H]1CC[C@H]2[C@@H]3[C@@H](O)C[C@@H]4C[C@H](O)CC[C@]4(C)[C@H]3CC[C@]12C [URSODIOL]
  pIC50: < 4.70
  IC50: > 20 µM

## CC(C)C1NC(=O)[C@@H](C(C)C)OC(=O)[C@H](C(C)C)NC(=O)[C@H](C)OC(=O)[C@@H](C(C)C)NC(=O)[C@@H](C(C)C)OC(=O)[C@H](C(C)C)NC(=O)[C@H](C)OC(=O)[C@@H](C(C)C)NC(=O)[C@@H](C(C)C)OC(=O)[C@H](C(C)C)NC(=O)[C@H](C)OC1=O (stereo not given in full)
  pIC50: < 4.70
  IC50: > 20 µM

## CCC(C)C(CC)C(N)=O (stereo not given) [VALNOCTAMIDE]
  pIC50: < 4.70
  IC50: > 20 µM

## [N-]=[N+]=N[C@]1(CO)O[C@@H](n2ccc(N)nc2=O)[C@@H](O)[C@@H]1O
  pIC50: < 4.70
  IC50: > 20 µM

## NC(=O)c1cccnc1 [NIACINAMIDE]
  pIC50: < 4.70
  IC50: > 20 µM

## O=P(O)(O)OC(CO)CO [GLYCERYLPHOSPHATE]
  pIC50: < 4.70
  IC50: > 20 µM

## Nc1ccc(S(=O)(=O)NC(=O)c2ccccc2)cc1 [SULFABENZAMIDE]
  pIC50: < 4.70
  IC50: > 20 µM

## C=CCN1CCC[C@H]1CNC(=O)c1cc(CCCF)cc(OC)c1OC [FALLYPRIDE]
  pIC50: < 4.70
  IC50: > 20 µM

## CCOC(=O)C1=C(C)NC(C)=C(C(=O)OCC)C1c1cccnc1SC [MESUDIPINE]
  pIC50: < 4.70
  IC50: > 20 µM

## CCn1c(=O)c2c(nc(/C=C/c3ccc(OC)c(OC)c3)n2C)n(CC)c1=O [ISTRADEFYLLINE]
  pIC50: < 4.70
  IC50: > 20 µM

## CC[C@]1(c2ccccc2)NC(=O)N(C)C1=O
  pIC50: < 4.70
  IC50: > 20 µM

## CC(C)(C)C(=O)OCOC(=O)[C@@H]1N2C(=O)[C@@H](NC(=O)[C@H](N)c3ccccc3)[C@H]2SC1(C)C [PIVAMPICILLIN]
  pIC50: < 4.70
  IC50: > 20 µM

## CO/N=C(\C(=O)N[C@@H]1C(=O)N2C(C(=O)O)=C(C[N+]3(C)CCCC3)CS[C@H]12)c1csc(N)n1
  pIC50: < 4.70
  IC50: > 20 µM

## C=C1c2c(Cl)ccc(O)c2C(=O)C2=C(O)[C@]3(O)C(=O)C(C(N)=O)=C(O)[C@@H](N(C)C)[C@@H]3[C@@H](O)C12 (stereo not given in full)
  pIC50: < 4.70
  IC50: > 20 µM

## COc1cccc([C@H]2C[C@@H](N[C@H](C)c3ccccc3)C(=O)N2c2ccc(C(F)(F)F)cc2)c1 [MEPPEP]
  pIC50: < 4.70
  IC50: > 20 µM

## CC(=O)NCC1(c2ccccc2)CCN(CC2COc3ccccc3O2)CC1 (stereo not given) [ACOXATRINE]
  pIC50: < 4.70
  IC50: > 20 µM

## CC(C(=O)O)c1cccc2c(-c3ccccc3)coc12 (stereo not given) [FURAPROFEN]
  pIC50: < 4.70
  IC50: > 20 µM

## NCCc1ccc(O)cc1 [TYRAMINE]
  pIC50: < 4.70
  IC50: > 20 µM

## OC[C@H]1O[C@H](O[C@H]2O[C@H](CO)[C@@H](O)[C@H](O)[C@H]2O)[C@H](O)[C@@H](O)[C@@H]1O [TREHALOSE]
  pIC50: < 4.70
  IC50: > 20 µM

## O=C(Nc1cnccc1Cl)N1CCN(Cc2ccc3c(c2)OC(F)(F)O3)CC1 [JNJ-42165279]
  pIC50: < 4.70
  IC50: > 20 µM

## Cc1nc(N2CCOC[C@@H]2C)nc(-n2ccnc2)c1[N+](=O)[O-]
  pIC50: < 4.70
  IC50: > 20 µM
